# Source: patent US8999981B2, “3-amido-pyrrolo[3,4-C]pyrazole-5(1H, 4H,6H) carbaldehyde derivatives” (Pfizer Inc., priority 2007, dated 2015)
# Biological target: Protein Kinase C beta 2 (PKCβII) (Homo sapiens (Human), UniProt P05771)
# Test: PKCβII coupled PK/LDH spectrophotometric kinase assay
# Assay type: biochemical
# Conditions: apparent Ki, ATP-competitive model (Morrison equation); 0.1 mM ATP, 30° C.; read-out: PKCb Ki
# Description: This transfer is coupled to the oxidation of β-NADH through the activities of Pyruvate Kinase (PK) and Lactate Dehydrogenase (LDH). β-NADH conversion to NAD+ is monitored by the decrease in absorbance at 340 nm (e=6.22 cm^−1 mM^−1) using a Molecular Devices SPECTRA max PLUS spectrophotometer.
# A typical assay was carried out on a 96-well, clear microtiter plate in a Molecular Devices spectrophotometer for 20 minutes at 30° C. in 0.1 mL of assay buffer containing 50 mM HEPES, pH 7.4, 5 nM PKC, 23 units of pyruvate kinase, 33 units of lactate dehydrogenase, 0.15 mM peptide, 0.1 mM ATP, 1 mM DTT, 4 mM PEP, 8 mM MgCl2, 0.3 mM NADH, 60 mM CaCl2, 10 mg/mL PS, 50 ng/mL PMA, 7.5% DMSO and from about 10,000 nM to 0.169 nM compound inhibitor. Stock solutions of 3-sn-phosphatidyl-L-serine (PS) and phorbol-12-myristate-13-acetate (PMA) were sonicated for 30 seconds just prior to addition to assay buffer and assays were initiated by the addition of 100 μM ATP.
# Enzyme turnover values (kcat) were calculated according to […], where [E] is the total enzyme concentration. Enzyme inhibition constants (apparent K values) were determined by fitting initial velocities at variable inhibitor concentrations to a model for ATP competitive inhibition based on the Morrison equation). Morrison, J. F., Biochim. Biophys Acta 185: 269-286 (1969).
# Protein Kinase C beta 2 (PKCβII), sequence (P05771 other isoform, or with tags, fused parts or gaps): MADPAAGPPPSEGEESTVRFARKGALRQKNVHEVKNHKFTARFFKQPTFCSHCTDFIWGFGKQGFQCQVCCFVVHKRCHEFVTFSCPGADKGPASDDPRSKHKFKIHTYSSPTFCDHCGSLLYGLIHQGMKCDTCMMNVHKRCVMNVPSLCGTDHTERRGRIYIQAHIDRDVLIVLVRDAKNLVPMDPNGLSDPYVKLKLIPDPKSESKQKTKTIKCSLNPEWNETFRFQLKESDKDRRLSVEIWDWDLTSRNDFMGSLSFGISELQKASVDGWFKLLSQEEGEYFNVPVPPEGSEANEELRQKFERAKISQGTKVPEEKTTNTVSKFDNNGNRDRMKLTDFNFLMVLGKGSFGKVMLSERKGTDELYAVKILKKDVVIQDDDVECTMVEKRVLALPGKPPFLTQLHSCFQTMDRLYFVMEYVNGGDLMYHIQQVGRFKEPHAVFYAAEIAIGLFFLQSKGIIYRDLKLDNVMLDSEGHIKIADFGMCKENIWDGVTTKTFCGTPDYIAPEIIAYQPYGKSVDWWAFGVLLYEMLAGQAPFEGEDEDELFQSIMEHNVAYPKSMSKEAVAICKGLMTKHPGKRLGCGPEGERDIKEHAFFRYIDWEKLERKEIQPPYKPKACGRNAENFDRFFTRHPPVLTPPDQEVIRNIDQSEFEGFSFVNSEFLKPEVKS
row,Ki [nM],SMILES
1,15.9,C[C@H]1CN2CCC[C@H]2CN1C(=O)N1Cc2c(NC(=O)c3ccc4c(c3)CCO4)n[nH]c2C1(C)C [Example A64]
2,21.3,C[C@H]1CN2CCC[C@H]2CN1C(=O)N1Cc2c(NC(=O)c3cc(Cl)ccn3)n[nH]c2C1(C)C [Example A68]
3,67.8,CC[C@H]1CN2CCC[C@H]2CN1C(=O)N1Cc2c(NC(=O)c3ccccc3)n[nH]c2C1(C)C [Example A69]
4,46.2,CC[C@H]1CN2CCC[C@H]2CN1C(=O)N1Cc2c(NC(=O)c3ccccn3)n[nH]c2C1(C)C [Example A70]
5,49.9,CC[C@H]1CN2CCC[C@H]2CN1C(=O)N1Cc2c(NC(=O)c3cccc(Cl)c3)n[nH]c2C1(C)C [Example A71]
6,105,CC[C@H]1CN2CCC[C@H]2CN1C(=O)N1Cc2c(NC(=O)c3ccccc3F)n[nH]c2C1(C)C [Example A72]
7,115,CC[C@H]1CN2CCC[C@H]2CN1C(=O)N1Cc2c(NC(=O)c3ccc(F)cc3)n[nH]c2C1(C)C [Example A73]
8,10.4,C[C@H]1CN2CCC[C@H]2CN1C(=O)N1Cc2c(NC(=O)c3nc(Cl)c(Cl)s3)n[nH]c2C1(C)C [Example A74]
9,56.9,Cc1cc(C(=O)Nc2n[nH]c3c2CN(C(=O)N2C[C@@H]4CCCN4C[C@@H]2C)C3(C)C)nc(C)n1 [Example A75]
10,13.9,C[C@H]1CN2CCC[C@H]2CN1C(=O)N1Cc2c(NC(=O)c3cc4cccn4cn3)n[nH]c2C1(C)C [Example A76]
11,77.8,C[C@H]1CN2CCC[C@@H]2CN1C(=O)N1Cc2c(NC(=O)c3ccccn3)n[nH]c2C1(C)C [Example A77]
12,165,CC1(C)c2[nH]nc(NC(=O)c3ccccn3)c2CN1C(=O)N1C[C@@H]2CCCN2C[C@@H]1CO [Example A78]
13,79.6,CCC1CN(C(=O)N2Cc3c(NC(=O)c4ccccn4)n[nH]c3C2(C)C)CCN1C (stereo not shown) [Example A79]
14,129,CC[C@H](C)[C@H]1CN2CCC[C@@H]2CN1C(=O)N1Cc2c(NC(=O)c3ccccn3)n[nH]c2C1(C)C [Example A80]
15,125,CC1(C)CN2CCC[C@H]2CN1C(=O)N1Cc2c(NC(=O)c3ccccn3)n[nH]c2C1(C)C [Example A81]
16,81.8,CC1(C)CN2CCC[C@H]2CN1C(=O)N1Cc2c(NC(=O)c3ccccn3)n[nH]c2C1(C)C [Example A82]
17,139,CC[C@H](C)[C@H]1CN2C[C@H](O)C[C@H]2CN1C(=O)N1Cc2c(NC(=O)c3ccccn3)n[nH]c2C1(C)C [Example A84]
18,15.2,CC[C@H](C)[C@H]1CN2C[C@H](O)C[C@H]2CN1C(=O)N1Cc2c(NC(=O)c3ccccn3)n[nH]c2C1(C)C [Example A85]
19,74.1,CCC1(C)c2[nH]nc(NC(=O)c3ncc(F)cc3F)c2CN1C(=O)C1C[C@@H]2CCCN2C[C@@H]1C (stereo partly shown) [Example A86]
20,32.3,C[C@H]1CN2CCC[C@H]2CN1C(=O)N1Cc2c(NC(=O)c3cc(N(C)C)ccn3)n[nH]c2C1(C)C [Example A87]
21,17.8,C[C@H]1CN2CCC[C@H]2CN1C(=O)N1Cc2c(NC(=O)c3ccc4ccccc4n3)n[nH]c2C1(C)C [Example A88]
22,15.7,C=CCN1C[C@H](C)N(C(=O)N2Cc3c(NC(=O)c4ccccn4)n[nH]c3C2(C)C)C[C@H]1C [Example A89]

row,Ki [nM],SMILES
1,107,CC[C@H]1CN2CCC[C@@H]2CN1C(=O)N1Cc2c(CC(=O)c3ccccn3)n[nH]c2C1(C)C [Example A90]
2,20.3,C[C@H]1CN2CCC[C@H]2CN1C(=O)N1Cc2c(NC(=O)c3ccc(Br)cn3)n[nH]c2C1(C)C [Example A91]
3,63.6,COCCN1C[C@H](C)N(C(=O)N2Cc3c(NC(=O)c4ccccn4)n[nH]c3C2(C)C)C[C@H]1C [Example A93]
4,19.9,CC1CN(C(=O)N2Cc3c(NC(=O)c4ccccn4)n[nH]c3C2(C)C)C(C)CN1CCCO (stereo not shown) [Example A99]
5,45.9,CCCN1C[C@H](C)N(C(=O)N2Cc3c(NC(=O)c4ccc(F)cc4F)n[nH]c3C2(C)C)C[C@H]1CCO [Example A102]
6,12.9,C[C@H]1CN2CCC[C@H]2CC1C(=O)N1Cc2c(NC(=O)c3csc(Br)n3)n[nH]c2C1(C)C (stereo partly shown) [Example A103]
7,83.7,C[C@H]1CN2C[C@H]3CC3[C@H]2CN1C(=O)N1Cc2c(NC(=O)c3ccccn3)n[nH]c2C1(C)C (stereo partly shown) [Example A104]
8,109,C[C@H]1CN2C[C@@H](F)C[C@H]2CN1C(=O)N1Cc2c(NC(=O)c3ccccn3)n[nH]c2C1(C)C [Example A105]
9,186,C[C@H]1CN2CCC[C@H]2CN1C(=O)N1Cc2c(NC(=O)C3CCCCO3)n[nH]c2C1(C)C (stereo partly shown) [Example A112]
10,13.9,C[C@@H]1CN(C(=O)N2Cc3c(NC(=O)c4ccccn4)n[nH]c3C2(C)C)[C@@H](C)CN1C [Example A113]
11,87.1,C[C@H]1CN(C)C(C)(C)CN1C(=O)N1Cc2c(NC(=O)c3ccc(F)cc3F)n[nH]c2C1(C)C [Example A114]
12,93.9,CC[C@H]1CN(C(=O)N2Cc3c(NC(=O)c4ccccn4)n[nH]c3C2(C)C)[C@@H](C)CN1C [Example A125]
13,22.2,CCN1C[C@H](C)N(C(=O)N2Cc3c(NC(=O)c4ccc(F)cn4)n[nH]c3C2(C)C)C[C@@H]1C [Example A126]
14,61.9,CCC1(CC)c2[nH]nc(NC(=O)c3ccccn3)c2CN1C(=O)N1C[C@@H]2CCCN2C[C@@H]1C [Example A132]
15,90.1,CC(C)[C@H]1CN(C)C(C)(C)CN1C(=O)N1Cc2c(NC(=O)c3ccccn3)n[nH]c2C1(C)C [Example A134]
16,26.8,C[C@@H]1CN(C(=O)N2Cc3c(NC(=O)c4cc(C5CC5)on4)n[nH]c3C2(C)C)[C@@H](C)CN1C [Example A140]
17,23.6,C[C@@H]1CN(C(=O)N2Cc3c(NC(=O)c4ccccn4)n[nH]c3C2(C)C)[C@@H](C)CN1CCCC#N [Example A141]
18,1.9,C[C@@H]1CN(C(=O)N2Cc3c(NC(=O)c4ccccn4)n[nH]c3C2(C)C)[C@@H](C)CN1CC1CCOCC1 [Example A143]
19,38.3,C[C@@H]1CN(C(=O)N2Cc3c(NC(=O)c4ccccn4)n[nH]c3C2(C)C)[C@@H](C)CN1CCCCC#N [Example A144]
20,17.6,"C[C@@H]1CN(C(=O)N2Cc3c(NC(=O)c4ccccn4)n[nH]c3C2(C)C)[C@@H](C)CN1CCC1CCOCC1 [Example A145, N-(5-((2R,5S)-2,5-dimethyl-1-(2(tetradehydro-2H-pyran-4-yl)methyl)piperazine-4-carbonyl)-6,6-dimethyl-1,4,5,6-tetrahydropyrrolo[3,4-c]pyrazol-3-yl)picolinamide]"
21,1.7,C[C@@H]1CN(C(=O)N2Cc3c(NC(=O)c4ccccn4)n[nH]c3C2(C)C)[C@@H](C)CN1C1CCOCC1 [Example A146]
22,< 10,C[C@@H]1CN(C(=O)N2Cc3c(NC(=O)c4ccccn4)n[nH]c3C2(C)C)[C@@H](C)CN1CC1CCOC1 (stereo partly shown) [Example A147]

row,SMILES,Ki [nM]
1,Cc1cccc(C(=O)Nc2n[nH]c3c2CN(C(=O)N2C[C@@H]4CCCN4C[C@@H]2C)C3(C)C)c1 [Example A65],54.5
2,C[C@H]1CN2CCC[C@H]2CN1C(=O)N1Cc2c(NC(=O)c3ccc(C#N)cc3F)n[nH]c2C1(C)C [Example A66],122
3,C[C@H]1CN2CCC[C@H]2CN1C(=O)N1Cc2c(NC(=O)c3ccc(Cl)cn3)n[nH]c2C1(C)C [Example A67],24.3
4,CCCN1C[C@H](C)N(C(=O)N2Cc3c(NC(=O)c4ccccn4)n[nH]c3C2(C)C)C[C@H]1CCO [Example A83],9.53
5,C[C@H]1CN2CCC[C@H]2CN1C(=O)N1Cc2c(NC(=O)c3ccc(F)cn3)n[nH]c2C1(C)C [Example A92],20.3
6,CCN1C[C@H](C)N(C(=O)N2Cc3c(NC(=O)c4ccccn4)n[nH]c3C2(C)C)C[C@H]1C [Example A95],9.11
7,CC(C)[C@H]1CN2CCC[C@H]2CN1C(=O)N1Cc2c(NC(=O)c3ccccn3)n[nH]c2C1(C)C [Example A100],14.1
8,CC(C)[C@H]1CN2CCC[C@H]2CN1C(=O)N1Cc2c(NC(=O)c3ccc(F)cc3F)n[nH]c2C1(C)C [Example A101],148
9,CC1CN(C(=O)N2Cc3c(NC(=O)c4ccccn4)n[nH]c3C2(C)C)CCN1CC1CC1 (stereo not shown) [Example A127],134
10,CCN1CCN(C(=O)N2Cc3c(NC(=O)c4ccccn4)n[nH]c3C2(C)C)CC1C (stereo not shown) [Example A128],156
11,C[C@H]1CN(C)C(C)(C)CN1C(=O)N1Cc2c(NC(=O)c3ccccn3)n[nH]c2C1(C)C [Example A129],18.1
12,C[C@H]1CN2CCC[C@H]2CN1C(=O)N1Cc2c(NC(=O)c3ccc(C(F)(F)F)cn3)n[nH]c2C1(C)C [Example A130],31.5
13,CC[C@@H]1CN(C(=O)N2Cc3c(NC(=O)c4ccccn4)n[nH]c3C2(C)C)[C@@H](C)CN1C [Example A131],37.2
14,C[C@H]1CN(C)C2(CCC2)CN1C(=O)N1Cc2c(NC(=O)c3ccccn3)n[nH]c2C1(C)C [Example A133],8.58
15,CC(C)[C@H]1CN(C)C(C)CN1C(=O)N1Cc2c(NC(=O)c3ccc(Cl)cn3)n[nH]c2C1(C)C (stereo partly shown) [Example A135],51.2
16,C[C@H]1CN2CCC[C@@]2(C)CN1C(=O)N1Cc2c(NC(=O)c3ccc(F)cn3)n[nH]c2C1(C)C [Example A138],29.3
17,CC[C@H]1CN2CCC[C@@]2(C)CN1C(=O)N1Cc2c(NC(=O)c3ccc(F)cn3)n[nH]c2C1(C)C [Example A139],75.2
